Among the test systems are RXF-631 renal; KM20L2 colon; HOP-18 NSCLC; XF 498 CNS; DLD-1 colon; LXFL 529 NSCLC; SNB-78 CNS; DMS 114 small cell lung; DMS 273 small cell lung.
What all share (assay): NCI-60 cell line screen, 48 h

The structures appear in SMILES notation.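 48-hour exposure; five concentrations; linearly interpolated endpoints. TGI: concentration producing complete growth inhibition.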

Take `CCOC(=O)C(C(=O)OCC)=C1N[C@H](C(=O)OCC)CS1`: the TGI in the experiment with RXF-631 renal, with KM20L2 colon, with HOP-18 NSCLC, in the experiment on XF 498 CNS, in the experiment on DLD-1 colon and in the experiment on LXFL 529 NSCLC was > 100 µM in each case. Also, in the experiment with SNB-78 CNS, the TGI was > 100 µM.

As for `CC(=O)c1ccc(NC(=O)C(=O)C(C(=O)c2ccc(Cl)c(Cl)c2)C2OC(=O)c3ccccc32)cc1` (stereo not drawn), the TGI is 46.3 µM in the experiment with DMS 114 small cell lung; > 100 µM with KM20L2 colon; 68.5 µM with DMS 273 small cell lung; 90.6 µM with HOP-18 NSCLC; > 100 µM with XF 498 CNS; 55.8 µM in the experiment on DLD-1 colon. The TGI in the experiment with LXFL 529 NSCLC was 32.8 µM; in the experiment on SNB-78 CNS it was > 100 µM.

In the case of `CCCCCNC(=O)c1c(O)[nH]c(=S)[nH]c1=O`, the TGI with RXF-631 renal, in the experiment on DMS 114 small cell lung, in the experiment on KM20L2 colon, with LXFL 529 NSCLC and with SNB-78 CNS was > 100 µM each time.

Take `COc1ccccc1C(N)c1ccccc1` (stereo not drawn): the TGI in the experiment with DMS 114 small cell lung, in the experiment with KM20L2 colon, with DMS 273 small cell lung, with HOP-18 NSCLC, in the experiment on DLD-1 colon and with LXFL 529 NSCLC was > 100 µM throughout. For the same molecule, the TGI with SNB-78 CNS is > 100 µM.

With `Cc1c(C(=O)/C=C/c2c(Cl)cccc2Cl)c(=O)n(-c2ccccc2)n1C`, the TGI with DMS 114 small cell lung was > 100 µM; in the experiment on KM20L2 colon, > 100 µM; with DMS 273 small cell lung, 33.7 µM; in the experiment on XF 498 CNS, 71 µM; in the experiment on LXFL 529 NSCLC, 31.1 µM; in the experiment on SNB-78 CNS, > 100 µM.

Take `O=C(c1nc2ccc(Cl)cc2[nH]c1=O)C(O)c1ccc2c(c1)OCO2` (stereo not drawn): the TGI in the experiment on RXF-631 renal is > 100 µM; with DMS 114 small cell lung it was 94.1 µM; in the experiment with KM20L2 colon it was > 100 µM; with DMS 273 small cell lung, > 100 µM; with HOP-18 NSCLC, > 100 µM; in the experiment on XF 498 CNS, > 100 µM. The TGI in the experiment with DLD-1 colon and in the experiment with LXFL 529 NSCLC was > 100 µM in each case.

As for `CCCCCCCCCCCCCCCCCC(=O)OCC(C[As](=O)(O)O)OC(=O)CCCCCCCCCCCCCCCCC` (stereo not drawn), the TGI is > 100 µM in the experiment on RXF-631 renal; 34.3 µM in the experiment on DMS 114 small cell lung; > 100 µM in the experiment with KM20L2 colon; > 100 µM with DMS 273 small cell lung; > 100 µM with HOP-18 NSCLC; 53 µM in the experiment with XF 498 CNS. For the same molecule, the TGI in the experiment with DLD-1 colon, in the experiment on LXFL 529 NSCLC and in the experiment with SNB-78 CNS was > 100 µM each time.

For `CC(=O)OC1CC2C(C)(C)C(=O)C=C[C@]2(C)C2CCC3(C)C(c4ccoc4)[C@@H](O)[C@H]4O[C@]43[C@]12C` (stereo partly drawn), the TGI came out at 41.9 µM in the experiment on DMS 114 small cell lung; 33.4 µM in the experiment on KM20L2 colon; 89.1 µM in the experiment with DMS 273 small cell lung; 45.5 µM in the experiment with HOP-18 NSCLC; 41 µM with DLD-1 colon; 37 µM with LXFL 529 NSCLC. For the same molecule, in the experiment on SNB-78 CNS, the TGI was 67.8 µM.

For `O=NN/C(=C1\Nc2ccc([N+](=O)[O-])cc2NC1=O)C(O)c1ccc([N+](=O)[O-])cc1` (stereo not drawn), the TGI in the experiment on RXF-631 renal, with DMS 114 small cell lung, with KM20L2 colon, with DMS 273 small cell lung, in the experiment with XF 498 CNS and with DLD-1 colon was > 100 µM in each case. For the same molecule, the TGI in the experiment with LXFL 529 NSCLC and in the experiment on SNB-78 CNS was > 100 µM each time.

For `CC1=CC(=O)c2c(C=O)c(O)c(O)c(C(C)C)c2C1=O`, the TGI in the experiment on DMS 114 small cell lung was 51.5 µM; with KM20L2 colon, > 100 µM; in the experiment on DMS 273 small cell lung it was > 88.5 µM; in the experiment on HOP-18 NSCLC it was 58 µM; with XF 498 CNS, 43.9 µM; with DLD-1 colon, > 68.4 µM. The TGI in the experiment with LXFL 529 NSCLC was 41.4 µM; in the experiment with SNB-78 CNS, > 100 µM.

The record behind these values is PubChem BioAssay (NCI).
